# In paper PMC6090556 (Neuron, 2018):
# Like-named read-outs stand apart in the source and are kept apart here. Marks after values point to notes of the source that are not given here.
# Tests used:
# [1] = tested on: NMDARs in cultured cortical neurons; format: cell-based, rat; conditions: 400 μM DL-APV
# [2] = tested on: NMDARs in cultured cortical neurons transfected with GluN2C and GFP; format: cell-based, rat
# [3] = target: NMDARs in cerebellar granule cells, wild type mice (Mus musculus, UniProt P35436+P35438+Q01098); format: cell-based
# [4] = tested on: NMDARs in cultured cortical neurons transfected with GFP alone (control); format: cell-based, rat
# GluN1/GluN2A = GluN1/GluN2A (Rattus norvegicus, UniProt P35439+Q00959); conditions: 5 ms pulse of 1 mM glutamate, continuous 100 μM glycine, n=6
# GluN1/GluN2C = GluN1/GluN2C (Rattus norvegicus, UniProt P35439+Q00961); conditions: 5 ms pulse of 1 mM glutamate, continuous 100 μM glycine, n=8
# [5] = target: NMDARs in cerebellar granule cells, Grin2C−/− mice (Mus musculus, UniProt P35436+P35438); format: cell-based; conditions: 50 μM PYD-106, Grin2C−/− slices, n=8 animals
# [6] = tested on: GluN1/GluN2B/GluN2C receptors; test: Two-electrode voltage-clamp recordings in Xenopus oocytes; format: cell-based, rat; conditions: Figure S1
# [7] = target: NMDARs in cerebellar granule cells, Grin2A−/− mice (Mus musculus, UniProt P35438+Q01098); format: cell-based; conditions: 50 μM PYD-106, Grin2A−/− slices, n=8 animals
# [8] = target: NMDARs in cultured cortical neurons (Rattus norvegicus, UniProt P35439+Q00960); format: cell-based; conditions: spermine potentiation of native GluN2B-mediated current responses, n=3
# GluN1/GluN2AC1/GluN2AC2 = GluN1/GluN2AC1/GluN2AC2 (Rattus norvegicus, UniProt P35439+Q00959); test: Two-electrode voltage-clamp recordings in Xenopus oocytes
# [9] = target: GluN1/GluN2AC1/GluN2CC2(NK) (Rattus norvegicus, UniProt P35439+Q00959+Q00961, N612K); test: as above; format: cell-based; conditions: for GluN2AC1/GluN2CC2(NK) fitted response in saturating Zn2+ as percent of control: mean ± SEM; for IC50: read-out: GluN2AC1/GluN2CC2(NK) EC50 (95% CI), IC50 in text, Zn2+ inhibition
# Chain of GluN1/GluN2AC1/GluN2CC2(NK) (Q00961 20-836 N612K, other chains not shown): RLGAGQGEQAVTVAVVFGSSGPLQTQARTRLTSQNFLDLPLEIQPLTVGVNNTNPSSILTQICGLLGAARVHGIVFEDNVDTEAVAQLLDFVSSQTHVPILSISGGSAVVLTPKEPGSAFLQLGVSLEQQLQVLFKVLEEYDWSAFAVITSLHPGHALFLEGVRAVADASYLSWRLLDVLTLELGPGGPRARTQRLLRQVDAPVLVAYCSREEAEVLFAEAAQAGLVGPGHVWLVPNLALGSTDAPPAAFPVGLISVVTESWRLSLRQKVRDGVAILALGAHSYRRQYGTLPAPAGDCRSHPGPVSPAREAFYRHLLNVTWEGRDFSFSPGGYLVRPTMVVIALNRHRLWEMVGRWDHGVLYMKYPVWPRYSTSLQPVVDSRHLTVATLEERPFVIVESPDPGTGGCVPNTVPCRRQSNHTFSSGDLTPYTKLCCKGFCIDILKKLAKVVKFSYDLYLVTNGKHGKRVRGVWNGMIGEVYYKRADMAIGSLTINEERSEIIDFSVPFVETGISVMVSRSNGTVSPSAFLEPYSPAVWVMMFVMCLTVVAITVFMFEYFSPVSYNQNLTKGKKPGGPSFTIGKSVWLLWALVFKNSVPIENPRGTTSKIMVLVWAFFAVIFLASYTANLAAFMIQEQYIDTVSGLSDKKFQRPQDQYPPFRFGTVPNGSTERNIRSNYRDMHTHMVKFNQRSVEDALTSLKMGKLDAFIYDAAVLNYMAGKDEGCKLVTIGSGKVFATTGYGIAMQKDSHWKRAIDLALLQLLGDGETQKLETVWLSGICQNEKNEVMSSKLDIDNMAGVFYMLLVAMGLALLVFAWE
# Chain of GluN1/GluN2AC1/GluN2CC2(NK) (Q00959 23-1464, other chains not shown): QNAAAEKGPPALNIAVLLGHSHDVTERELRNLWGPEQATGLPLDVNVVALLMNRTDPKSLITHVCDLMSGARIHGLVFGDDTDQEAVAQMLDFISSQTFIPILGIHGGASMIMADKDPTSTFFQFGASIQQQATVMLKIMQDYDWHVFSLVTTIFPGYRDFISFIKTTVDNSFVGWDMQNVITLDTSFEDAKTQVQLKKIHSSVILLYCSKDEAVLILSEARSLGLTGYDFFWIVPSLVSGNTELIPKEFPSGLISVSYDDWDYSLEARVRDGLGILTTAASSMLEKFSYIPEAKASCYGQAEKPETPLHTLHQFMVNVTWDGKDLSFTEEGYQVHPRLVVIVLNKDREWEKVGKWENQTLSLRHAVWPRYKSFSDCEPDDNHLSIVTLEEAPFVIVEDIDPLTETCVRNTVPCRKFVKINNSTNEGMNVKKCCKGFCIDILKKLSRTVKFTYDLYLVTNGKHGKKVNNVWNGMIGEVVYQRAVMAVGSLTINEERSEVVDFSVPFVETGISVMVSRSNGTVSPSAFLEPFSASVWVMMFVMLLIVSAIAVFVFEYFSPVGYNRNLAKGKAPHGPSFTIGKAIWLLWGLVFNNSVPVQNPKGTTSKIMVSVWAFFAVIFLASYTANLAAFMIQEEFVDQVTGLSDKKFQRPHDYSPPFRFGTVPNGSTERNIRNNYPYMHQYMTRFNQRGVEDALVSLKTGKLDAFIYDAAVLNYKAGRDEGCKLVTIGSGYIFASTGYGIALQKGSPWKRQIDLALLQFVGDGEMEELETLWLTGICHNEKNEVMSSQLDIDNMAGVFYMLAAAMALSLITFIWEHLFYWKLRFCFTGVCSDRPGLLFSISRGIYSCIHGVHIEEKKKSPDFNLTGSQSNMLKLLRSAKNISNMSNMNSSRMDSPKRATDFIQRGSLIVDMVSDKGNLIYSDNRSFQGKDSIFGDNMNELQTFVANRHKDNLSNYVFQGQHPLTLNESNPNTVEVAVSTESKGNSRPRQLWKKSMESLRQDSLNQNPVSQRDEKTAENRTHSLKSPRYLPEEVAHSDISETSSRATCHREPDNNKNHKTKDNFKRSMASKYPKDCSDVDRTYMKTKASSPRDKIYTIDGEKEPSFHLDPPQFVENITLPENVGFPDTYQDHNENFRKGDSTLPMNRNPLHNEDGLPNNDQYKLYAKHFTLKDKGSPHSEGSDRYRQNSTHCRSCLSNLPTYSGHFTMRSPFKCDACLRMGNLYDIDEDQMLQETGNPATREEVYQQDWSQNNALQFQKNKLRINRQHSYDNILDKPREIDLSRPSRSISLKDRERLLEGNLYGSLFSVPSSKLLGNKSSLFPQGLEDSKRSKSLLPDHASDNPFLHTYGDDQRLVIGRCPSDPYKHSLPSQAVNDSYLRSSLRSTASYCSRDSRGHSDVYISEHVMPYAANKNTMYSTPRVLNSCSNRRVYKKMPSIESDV
# Chain of NMDARs in cerebellar granule cells, wild type mice (P35436 23-1464, other chains not shown): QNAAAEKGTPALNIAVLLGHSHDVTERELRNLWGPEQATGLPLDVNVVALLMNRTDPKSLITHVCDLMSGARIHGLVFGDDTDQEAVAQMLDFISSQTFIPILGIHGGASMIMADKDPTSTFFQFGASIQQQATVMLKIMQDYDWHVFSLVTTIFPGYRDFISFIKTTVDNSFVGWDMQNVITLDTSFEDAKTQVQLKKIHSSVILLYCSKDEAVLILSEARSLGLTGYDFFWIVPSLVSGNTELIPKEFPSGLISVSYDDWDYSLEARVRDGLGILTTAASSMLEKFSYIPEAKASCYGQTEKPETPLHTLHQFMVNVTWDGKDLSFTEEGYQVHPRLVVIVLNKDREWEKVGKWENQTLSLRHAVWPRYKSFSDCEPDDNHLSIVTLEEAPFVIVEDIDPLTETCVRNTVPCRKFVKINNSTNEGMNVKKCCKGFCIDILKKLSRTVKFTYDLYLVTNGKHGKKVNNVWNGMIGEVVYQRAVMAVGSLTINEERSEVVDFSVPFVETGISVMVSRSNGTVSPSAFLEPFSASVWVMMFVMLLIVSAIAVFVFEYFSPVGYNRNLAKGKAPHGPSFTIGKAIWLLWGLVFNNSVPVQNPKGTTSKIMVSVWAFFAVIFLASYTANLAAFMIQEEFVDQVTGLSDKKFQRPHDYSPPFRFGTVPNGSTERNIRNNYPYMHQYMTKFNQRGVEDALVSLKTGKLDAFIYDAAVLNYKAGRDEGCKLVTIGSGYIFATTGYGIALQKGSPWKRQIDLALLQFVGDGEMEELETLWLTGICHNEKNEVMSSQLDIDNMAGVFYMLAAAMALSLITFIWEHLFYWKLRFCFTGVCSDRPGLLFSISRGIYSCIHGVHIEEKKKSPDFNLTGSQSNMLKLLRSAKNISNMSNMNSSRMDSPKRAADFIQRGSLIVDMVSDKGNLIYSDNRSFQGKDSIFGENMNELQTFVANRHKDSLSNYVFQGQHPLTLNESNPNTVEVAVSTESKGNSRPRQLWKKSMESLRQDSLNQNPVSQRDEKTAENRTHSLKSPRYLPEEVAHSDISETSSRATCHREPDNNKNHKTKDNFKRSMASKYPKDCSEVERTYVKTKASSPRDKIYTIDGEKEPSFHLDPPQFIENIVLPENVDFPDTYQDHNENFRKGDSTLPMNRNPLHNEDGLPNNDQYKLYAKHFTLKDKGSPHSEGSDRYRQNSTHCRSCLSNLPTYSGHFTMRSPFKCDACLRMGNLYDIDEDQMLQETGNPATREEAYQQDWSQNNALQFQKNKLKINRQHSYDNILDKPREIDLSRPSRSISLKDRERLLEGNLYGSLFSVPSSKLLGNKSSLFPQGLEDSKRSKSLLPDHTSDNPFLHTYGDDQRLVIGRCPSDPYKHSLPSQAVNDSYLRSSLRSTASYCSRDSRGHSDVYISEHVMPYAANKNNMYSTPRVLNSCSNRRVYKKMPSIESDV
# Chain of NMDARs in cerebellar granule cells, wild type mice (Q01098 20-1239, other chains not shown): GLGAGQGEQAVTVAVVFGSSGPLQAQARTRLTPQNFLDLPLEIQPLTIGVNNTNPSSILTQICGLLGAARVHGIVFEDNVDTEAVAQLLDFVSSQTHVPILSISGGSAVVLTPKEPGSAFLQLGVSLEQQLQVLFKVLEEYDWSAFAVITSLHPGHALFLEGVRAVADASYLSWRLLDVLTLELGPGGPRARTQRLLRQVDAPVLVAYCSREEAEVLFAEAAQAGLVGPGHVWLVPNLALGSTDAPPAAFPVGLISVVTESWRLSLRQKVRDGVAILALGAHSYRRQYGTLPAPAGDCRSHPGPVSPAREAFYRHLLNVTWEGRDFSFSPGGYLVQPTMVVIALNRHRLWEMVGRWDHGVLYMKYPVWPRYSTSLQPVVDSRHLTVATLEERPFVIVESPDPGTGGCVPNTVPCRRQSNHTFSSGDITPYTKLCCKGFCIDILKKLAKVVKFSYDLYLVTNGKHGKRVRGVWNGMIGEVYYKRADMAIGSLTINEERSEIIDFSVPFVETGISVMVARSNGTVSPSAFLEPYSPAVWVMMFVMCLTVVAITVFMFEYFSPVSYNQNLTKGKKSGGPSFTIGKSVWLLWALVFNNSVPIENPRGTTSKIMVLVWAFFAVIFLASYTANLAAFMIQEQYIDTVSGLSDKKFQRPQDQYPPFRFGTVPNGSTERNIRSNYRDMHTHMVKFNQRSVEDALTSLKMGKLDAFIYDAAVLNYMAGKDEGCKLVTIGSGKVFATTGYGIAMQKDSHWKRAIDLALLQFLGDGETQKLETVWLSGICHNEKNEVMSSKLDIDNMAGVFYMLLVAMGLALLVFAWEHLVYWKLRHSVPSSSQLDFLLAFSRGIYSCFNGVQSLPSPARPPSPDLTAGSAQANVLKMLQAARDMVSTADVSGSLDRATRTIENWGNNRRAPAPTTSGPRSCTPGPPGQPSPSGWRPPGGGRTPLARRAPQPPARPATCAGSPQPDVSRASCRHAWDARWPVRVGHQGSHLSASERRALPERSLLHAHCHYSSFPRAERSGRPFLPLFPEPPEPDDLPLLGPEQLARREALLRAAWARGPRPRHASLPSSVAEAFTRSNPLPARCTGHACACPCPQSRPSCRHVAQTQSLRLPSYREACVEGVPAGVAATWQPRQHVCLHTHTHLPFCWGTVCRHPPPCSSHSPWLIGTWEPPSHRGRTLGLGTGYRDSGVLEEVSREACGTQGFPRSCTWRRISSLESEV
# Chain of NMDARs in cerebellar granule cells, Grin2A−/− mice (Q01098 20-1239, other chains not shown): as above
smiles,measurement,setting,value
"NC(CCCP(=O)(O)O)C(=O)O (racemic) [DL-APV, D,L-2-amino-5-phosphonovalerate]","current response, % of control",[1],3.4±0.7%
COc1ccc(OCC2c3cc(OC)c(OC)cc3CCN2C(=O)c2cccc(Cl)c2)cc1 (stereo not shown) [CIQ],"NMDAR-mediated current, % of control","[2]; 20 μM CIQ, GluN2C-transfected neurons, n=5",145±9.4%
same,"NMDAR current response in the presence of ifenprodil, % of baseline","[2]; CIQ, 3 μM ifenprodil, GluN2C-transfected neurons, n=4",131±5%
same,"granule cell response to pressure-applied NMDA, % of DCS","[3]; 20 μM CIQ, 30 μM DCS, wild type mice, n=6 animals",141±6.7%
same,"NMDAR-mediated current, % of baseline","[4]; 20 μM CIQ, control (GFP) cortical neurons, n=4",96±4.6%
N[C@@H](CCC(=O)O)C(=O)O [Glutamate],time constant for glutamate deactivation (τ),GluN1/GluN2A,81 ± 8 ms
same,time constant for glutamate deactivation (τ),GluN1/GluN2C,477 ± 40 ms
COC(=O)c1ccc(C2C(C(C)=O)=C(O)C(=O)N2CCc2c(C)[nH]c3ccccc23)cc1 (stereo not shown) [PYD-106],"granule cell response, % of control",[5],90±7%
same,sensitivity to PYD-106,[6],insensitive
same,"NMDAR current response in the presence of ifenprodil, % of baseline","[2]; 50 μM PYD-106, 3 μM ifenprodil, GluN2C-transfected neurons, n=5",72±6%
same,"NMDAR current response, % of control","[2]; 50 μM PYD-106, GluN2C-transfected neurons, n=5",89±1.6%
same,"granule cell response to pressure-applied NMDA and glycine, % of control",[7],164±17%
same,"granule cell response to pressure-applied NMDA, % of DCS alone","[3]; 50 μM PYD-106, continuous 30 μM DCS, wild type mice, n=8 animals",84±3.8%
same,effect on NMDA responses with glycine as the co-agonist,"[3]; wild type granule cells, n=3 animals, data not shown",no effect
same,"NMDAR current response, % of control","[4]; 50 μM PYD-106, GFP control neurons, n=5",83±0.6%
NCCCNCCCCNCCCN [Spermine],"NMDAR current, % of baseline responses",[8],142±7.2%
[Zn+2] [Zn^2+],GluN2AC1/GluN2AC2 fitted response in saturating Zn2+ as percent of control,"GluN1/GluN2AC1/GluN2AC2; pH 6.8, mean ± SEM",21±1.7 ^c %
same,GluN2AC1/GluN2AC2 fitted response in saturating Zn2+ as percent of control,"GluN1/GluN2AC1/GluN2AC2; pH 7.3, mean ± SEM",57±2.0 ^c %
same,GluN2AC1/GluN2CC2(NK) fitted response in saturating Zn2+ as percent of control,"[9]; pH 6.8, 0.1 mM Mg2+",27±1.6 ^c %
same,GluN2AC1/GluN2CC2(NK) fitted response in saturating Zn2+ as percent of control,"[9]; pH 7.3, 0.1 mM Mg2+",57±0.4 ^c %
same,IC50,"[9]; pH 6.8, 0.1 mM Mg2+",19 nM
same,IC50,"[9]; pH 7.3, 0.1 mM Mg2+",45 nM
